Laboratory results as given in patent publication US20240409585A1, “MACROCYCLIC IMMUNOMODULATORS” (priority 2021, published 2024).
Bridge positions count the residues as written; N and C are the ends. Square brackets hold non-standard residues; d marks the D form. Peptide text beside a SMILES is read from it. * marks the point of attachment. ξ: configuration not given here. Phe(4-COOH) = N[C@@H](Cc1ccc(C(=O)O)cc1)C(=O)O; Bip = N[C@@H](Cc1ccc(-c2ccccc2)cc1)C(=O)O; Phe(3-Me) = Cc1cccc(C[C@H](N)C(=O)O)c1; Val(3-OH) = CC(C)(O)[C@H](N)C(=O)O; 4Pal = N[C@@H](Cc1ccncc1)C(=O)O; Cha = N[C@@H](CC1CCCCC1)C(=O)O; Cit = NC(=O)NCCC[C@H](N)C(=O)O; Ile(3ξ) = CCC(C)[C@H](N)C(=O)O; Pip = O=C(O)[C@@H]1CCCCN1; Carboxymethyl = O=C(O)C*; NMeA = CN[C@@H](C)C(=O)O; Orn = NCCC[C@H](N)C(=O)O; Dab = NCC[C@H](N)C(=O)O; Dap = NC[C@H](N)C(=O)O

Target: T1, PE-labeled human PD-L1-Ig binding to Jurkat cell line over-expressing human PD-1 (Jurkat-PD-1) (Homo sapiens, UniProt Q15116)
T1 construct: expressed in transfected cells; host or cells: Jurkat
Experiment: Jurkat-PD-1 Cell Binding High-Content Screening Assay (CBA): Method 1
Conditions: Jurkat-hPD-1 cells, PE-labeled PD-L1-Ig 20 nM final; read-out: Jurkat HPDL1 PD1 IC50 (uM) (Method 1)

T1 sequence (Q15116 25-288): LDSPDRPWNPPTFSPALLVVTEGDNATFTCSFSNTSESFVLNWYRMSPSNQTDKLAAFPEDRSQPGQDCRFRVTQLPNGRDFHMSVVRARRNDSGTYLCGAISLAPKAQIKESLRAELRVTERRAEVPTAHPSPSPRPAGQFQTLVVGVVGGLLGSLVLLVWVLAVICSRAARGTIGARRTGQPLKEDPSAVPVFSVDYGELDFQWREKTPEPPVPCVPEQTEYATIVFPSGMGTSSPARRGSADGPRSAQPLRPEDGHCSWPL

| IC50 | SMILES |
| --- | --- |
| 0.06 µM | CC(C)C[C@@H]1NC(=O)[C@H](CCCNC(=N)N)NC(=O)[C@@H](CC(C)C)NC(=O)[C@H](C)N(C)C(=O)[C@H](CCCNC(N)=O)NC(=O)[C@H](Cc2ccc(-c3ccccc3)cc2)NC(=O)[C@H](C(C)C)NC(=O)[C@H](Cc2c[nH]c3ccccc23)NC(=O)[C@H](CC(=O)O)NC(=O)[C@H](Cc2ccc(O)cc2)NC(=O)[C@H](CC(N)=O)NC(=O)CSC[C@@H](C(=O)N[C@@H](C)C(N)=O)NC(=O)[C@H]([C@@H](C)O)NC(=O)[C@H](C(C)C)NC1=O [Compound 1166] ({CH2CO}-NYDWV[Bip][Cit][NMeA][dL]RLVTCA-NH2; thioether N-14) |
| 0.11 µM | CC(C)C[C@@H]1NC(=O)[C@H](CCN)NC(=O)[C@@H](CC(C)C)NC(=O)[C@H](C)N(C)C(=O)[C@H](CCC(=O)O)NC(=O)[C@H](Cc2ccc(-c3ccccc3)cc2)NC(=O)[C@H](C(C)C)NC(=O)[C@H](Cc2c[nH]c3ccccc23)NC(=O)[C@H](CC(=O)O)NC(=O)[C@H](Cc2ccncc2)NC(=O)[C@H](CN)NC(=O)CSC[C@@H](C(=O)N[C@@H](C)C(N)=O)NC(=O)[C@H](CO)NC(=O)[C@H](C(C)C)NC1=O [Compound 1576] ({CH2CO}-[Dap][4Pal]DWV[Bip]E[NMeA][dL][Dab]LVSCA-NH2; thioether N-14) |
| 0.04 µM | CC[C@H](C)[C@@H]1NC(=O)[C@H](Cc2ccc(-c3ccccc3)cc2)NC(=O)[C@H](C(C)C)NC(=O)[C@H](Cc2c[nH]c3ccccc23)NC(=O)[C@H](CC(=O)O)NC(=O)[C@H](Cc2ccc(O)cc2)NC(=O)[C@H](Cc2ccc(OCC(=O)O)cc2)NC(=O)CSC[C@@H](C(=O)N[C@@H](C)C(N)=O)NC(=O)[C@H]([C@@H](C)O)NC(=O)[C@H](C(C)C)NC(=O)[C@H](CC(C)C)NC(=O)[C@H](CCCNC(=N)N)NC(=O)[C@@H](CC(C)C)NC(=O)[C@H](C)N(C)C1=O [Compound 1489] ({CH2CO}-Y(Carboxymethyl)YDWV[Bip]I[NMeA][dL]RLVTCA-NH2; thioether N-14) |
| 0.02 µM | Cc1cccc(C[C@@H]2NC(=O)[C@H](CC(=O)O)NC(=O)[C@H](Cc3ccc(OCC(=O)O)cc3)NC(=O)[C@H](Cc3ccncc3)NC(=O)CSC[C@@H](C(=O)N[C@@H](CCN)C(N)=O)NC(=O)[C@H](CCC(=O)O)NC(=O)[C@H](C(C)(C)O)NC(=O)[C@H](CC3CCCCC3)NC(=O)[C@H](CCN)NC(=O)[C@@H](CC(C)C)NC(=O)[C@H](C)N(C)C(=O)[C@H](Cc3ccc(C(=O)O)cc3)NC(=O)[C@H](Cc3ccc(-c4ccccc4)cc3)NC(=O)[C@H](Cc3ccc(C(=O)O)cc3)NC2=O)c1 [Compound 2196] ({CH2CO}-[4Pal]Y(Carboxymethyl)D[Phe(3-Me)][Phe(4-COOH)][Bip][Phe(4-COOH)][NMeA][dL][Dab][Cha][Val(3-OH)]EC[Dab]-NH2; thioether N-14) |
| 0.01 µM | Cc1cccc(C[C@@H]2NC(=O)[C@H](CC(=O)O)NC(=O)[C@H](Cc3ccncc3)NC(=O)[C@H](Cc3ccc(OCC(=O)O)cc3)NC(=O)CSC[C@@H](C(=O)N[C@@H](C)C(N)=O)NC(=O)[C@H](CO)NC(=O)[C@H](C(C)C)NC(=O)[C@H](CC(C)C)NC(=O)[C@H](CC(N)=O)NC(=O)[C@@H](C)NC(=O)[C@H](C)N(C)C(=O)[C@H](C(C)C)NC(=O)[C@H](Cc3ccc(-c4ccccc4)cc3)NC(=O)[C@H](CC(C)C)NC2=O)c1 [Compound 1583] ({CH2CO}-Y(Carboxymethyl)[4Pal]D[Phe(3-Me)]L[Bip]V[NMeA][dA]NLVSCA-NH2; thioether N-14) |
| 0.03 µM | CCC(C)[C@@H]1NC(=O)[C@H](Cc2ccc(-c3ccccc3)cc2)NC(=O)[C@H](CC(C)C)NC(=O)[C@H](Cc2c[nH]c3ccccc23)NC(=O)[C@H](CC(=O)O)NC(=O)[C@H](Cc2ccc(C(=O)O)cc2)NC(=O)[C@H](Cc2ccc(OCC(=O)O)cc2)NC(=O)CSC[C@@H](C(=O)N[C@@H](CC(N)=O)C(N)=O)NC(=O)[C@H](CCC(N)=O)NC(=O)[C@H](C(C)C)NC(=O)[C@H](CC2CCCCC2)NC(=O)[C@H](CCN)NC(=O)[C@@H](CC(C)C)NC(=O)[C@H](C)N(C)C1=O (stereo partly drawn) [Compound 1925] ({CH2CO}-Y(Carboxymethyl)[Phe(4-COOH)]DWL[Bip][Ile(3ξ)][NMeA][dL][Dab][Cha]VQCN-NH2; thioether N-14) |
| 0.01 µM | CC(C)C[C@H]1NC(=O)[C@H](C)N(C)C(=O)[C@H](CCCNC(=N)N)NC(=O)[C@H](Cc2ccc(-c3ccccc3)cc2)NC(=O)[C@H](C(C)C)NC(=O)[C@H](Cc2c[nH]c3ccccc23)NC(=O)[C@H](CC(=O)O)NC(=O)[C@H](Cc2ccc(O)cc2)NC(=O)[C@H](CC(N)=O)NC(=O)CSC[C@@H](C(=O)N[C@@H](C)C(N)=O)NC(=O)[C@H]([C@@H](C)O)NC(=O)[C@H](C(C)C)NC(=O)[C@H](CC2CCCCC2)NC(=O)[C@H](CCN)NC1=O [Compound 1284] ({CH2CO}-NYDWV[Bip]R[NMeA][dL][Dab][Cha]VTCA-NH2; thioether N-14) |
| 0.15 µM | Cc1cccc(C[C@@H]2NC(=O)[C@H](CC(=O)O)NC(=O)[C@H](Cc3ccc(OCC(=O)O)cc3)NC(=O)[C@H](CN)NC(=O)CSC[C@@H](C(N)=O)NC(=O)[C@H]([C@@H](C)O)NC(=O)[C@H](C(C)C)NC(=O)[C@H](CC3CCCCC3)NC(=O)[C@H](CCN)NC(=O)[C@@H](CC(C)C)NC(=O)[C@@H]3CCCCN3C(=O)[C@H](Cc3ccc(OCC(=O)O)cc3)NC(=O)[C@H](Cc3ccc(-c4ccccc4)cc3)NC(=O)[C@H](Cc3ccc(OCC(=O)O)cc3)NC2=O)c1 [Compound 1891] ({CH2CO}-[Dap]Y(Carboxymethyl)D[Phe(3-Me)]Y(Carboxymethyl)[Bip]Y(Carboxymethyl)[Pip][dL][Dab][Cha]VTC-NH2; thioether N-14) |
| 0.04 µM | CC(C)C[C@@H]1NC(=O)[C@H](CCCN)NC(=O)[C@@H](CC(C)C)NC(=O)[C@H](C)N(C)C(=O)[C@H](CCC(=O)O)NC(=O)[C@H](Cc2ccc(-c3ccccc3)cc2)NC(=O)[C@H](C(C)C)NC(=O)[C@H](Cc2c[nH]c3ccccc23)NC(=O)[C@H](CC(=O)O)NC(=O)[C@H](Cc2ccc(O)cc2)NC(=O)[C@H](CC(N)=O)NC(=O)CSC[C@@H](C(=O)N[C@@H](C)C(N)=O)NC(=O)[C@H](CO)NC(=O)[C@H](C(C)C)NC1=O [Compound 1240] ({CH2CO}-NYDWV[Bip]E[NMeA][dL][Orn]LVSCA-NH2; thioether N-14) |
| 0.06 µM | CC(C)C[C@@H]1NC(=O)[C@H](CCN)NC(=O)[C@@H](CC(C)C)NC(=O)[C@H](C)N(C)C(=O)[C@H](CCCNC(=N)N)NC(=O)[C@H](Cc2ccc(-c3ccccc3)cc2)NC(=O)[C@H](C(C)C)NC(=O)[C@H](Cc2c[nH]c3ccccc23)NC(=O)[C@H](CC(=O)O)NC(=O)[C@H](Cc2ccc(O)cc2)NC(=O)[C@H](CC(N)=O)NC(=O)CSC[C@@H](C(=O)NCC(N)=O)NC(=O)[C@H]([C@@H](C)O)NC(=O)[C@H](C(C)C)NC1=O [Compound 1249] ({CH2CO}-NYDWV[Bip]R[NMeA][dL][Dab]LVTCG-NH2; thioether N-14) |
| 0.03 µM | Cc1cccc(C[C@@H]2NC(=O)[C@H](CC(=O)O)NC(=O)[C@H](Cc3ccc(O)cc3)NC(=O)[C@H](CC(N)=O)NC(=O)CSC[C@@H](C(=O)N[C@@H](C)C(N)=O)NC(=O)[C@H]([C@@H](C)O)NC(=O)[C@H](C(C)C)NC(=O)[C@H](CC(C)C)NC(=O)[C@H](CCCNC(=N)N)NC(=O)[C@@H](CC(C)C)NC(=O)[C@H](C)N(C)C(=O)[C@H](CCCNC(=N)N)NC(=O)[C@H](Cc3ccc(-c4ccccc4)cc3)NC(=O)[C@H](C(C)C)NC2=O)c1 [Compound 1192] ({CH2CO}-NYD[Phe(3-Me)]V[Bip]R[NMeA][dL]RLVTCA-NH2; thioether N-14) |
